Consider one compound from ChEMBL document CHEMBL1201862, “PubChem BioAssay data set” (2004).

Among the test systems are 786-0; ACHN; COLO 205; HCT-15; Hs-578T; IGROV-1; M14; MDA-MB-231; MDA-MB-435; MOLT-4; Malme-3M; NCI-H226; NCI-H522; NCI/ADR-RES; OVCAR-4; SF-295; SF-539; SNB-75; SR; UACC-62.
Test in all cases: inhibition of tumour cell growth, NCI panel, 48 h

Molecules are shown by their SMILES.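 These data come from cells grown in 96-well plates and exposed to compound for 48 hours at five concentrations. GI50 = concentration required for 50% inhibition of growth.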 Activity calls are given as the source filed them. Cut-off read from the data, not from the text of the source: active = GI50 up to about 1.1 µM and inactive = higher.

Turning to `C[n+]1c2ccc(Cl)cc2nc2cc(-c3ccccc3)ccc21`, the GI50 is 35.3 µM (inactive) in the experiment on 786-0; 18.9 µM (inactive) in the experiment on ACHN; 3.58 µM (inactive) in the experiment on COLO 205; 7.76 µM with HCT-15; 25.5 µM (inactive) in the experiment on Hs-578T; 10 µM (inactive) in the experiment on IGROV-1. In addition, the GI50 was 4.65 µM (inactive) in the experiment with M14; 8.63 µM (inactive) in the experiment on MDA-MB-231; 1.77 µM (inactive) in the experiment with MDA-MB-435; 1.61 µM (inactive) in the experiment on MOLT-4; 19.4 µM (inactive) in the experiment on Malme-3M; 19.1 µM (inactive) in the experiment with NCI-H226. In addition, the GI50 is 16 µM (inactive) with NCI-H522; 33.2 µM (inactive) in the experiment with NCI/ADR-RES; 18.5 µM (inactive) with OVCAR-4; 1.74 µM (inactive) in the experiment with SF-295; 15.8 µM (inactive) with SF-539; 24.7 µM (inactive) with SNB-75. The GI50 with SR was 2.67 µM (inactive); with UACC-62, 18.4 µM (inactive).
